Experimental data as given in PubChem BioAssay (NCI).
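A five-concentration, 48-hour dose response in 96-well plates underlies each endpoint, interpolated linearly between surrounding concentrations. TGI denotes the concentration required for complete inhibition of growth.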

Experiments:
Experiment in all cases: NCI tumour cell line growth inhibition, 48 h
NCI-H226 lung = test system: NCI-H226 lung
CCRF-CEM leukemia = test system: CCRF-CEM leukemia
A549 NSCLC = test system: A549 NSCLC
NCI-H522 lung = test system: NCI-H522 lung
SK-MEL-2 melanoma = test system: SK-MEL-2 melanoma
EKVX NSCLC = test system: EKVX NSCLC
SN12C renal = test system: SN12C renal
NCI-H460 lung = test system: NCI-H460 lung
HS 578T breast = test system: HS 578T breast
SF-268 CNS = test system: SF-268 CNS
PC-3 prostate = test system: PC-3 prostate
DU-145 prostate = test system: DU-145 prostate
M14 melanoma = test system: M14 melanoma
HCC-2998 colon = test system: HCC-2998 colon
MOLT-4 leukemia = test system: MOLT-4 leukemia
A498 renal = test system: A498 renal
SK-MEL-5 melanoma = test system: SK-MEL-5 melanoma
OVCAR-8 ovarian = test system: OVCAR-8 ovarian
OVCAR-5 ovarian = test system: OVCAR-5 ovarian
NCI-H23 lung = test system: NCI-H23 lung
IGROV1 ovarian = test system: IGROV1 ovarian
SK-MEL-28 melanoma = test system: SK-MEL-28 melanoma
UO-31 renal = test system: UO-31 renal
UACC-62 melanoma = test system: UACC-62 melanoma
K-562 leukemia = test system: K-562 leukemia
CAKI-1 renal = test system: CAKI-1 renal
OVCAR-3 ovarian = test system: OVCAR-3 ovarian
T-47D breast = test system: T-47D breast
NCI/ADR-RES ovarian = test system: NCI/ADR-RES ovarian
786-0 renal = test system: 786-0 renal
SNB-75 CNS = test system: SNB-75 CNS
BT-549 breast = test system: BT-549 breast
SF-295 CNS = test system: SF-295 CNS
SR leukemia = test system: SR leukemia
MDA-N = test system: MDA-N
MALME-3M melanoma = test system: MALME-3M melanoma
OVCAR-4 ovarian = test system: OVCAR-4 ovarian
SW-620 colon = test system: SW-620 colon
LOX IMVI melanoma = test system: LOX IMVI melanoma
ACHN renal = test system: ACHN renal
HOP-62 NSCLC = test system: HOP-62 NSCLC
HOP-92 NSCLC = test system: HOP-92 NSCLC
HCT-15 colon = test system: HCT-15 colon
MDA-MB-231 breast = test system: MDA-MB-231 breast
HT29 colon = test system: HT29 colon
HCT-116 colon = test system: HCT-116 colon
RXF 393 renal = test system: RXF 393 renal
U251 CNS = test system: U251 CNS
TK-10 renal = test system: TK-10 renal
KM12 colon = test system: KM12 colon
UACC-257 melanoma = test system: UACC-257 melanoma
MDA-MB-435 = test system: MDA-MB-435
SNB-19 CNS = test system: SNB-19 CNS

O=C(C[N+]12CN3CN(CN(C3)C1)C2)c1ccc(-c2ccccc2)cc1 was tested, and the TGI (NCI-H226 lung) was 49.3 µM, the TGI (CCRF-CEM leukemia) was 5.37 µM and the TGI (A549 NSCLC) was greater than 100 µM. The TGI (NCI-H522 lung) was 38.2 µM, the TGI (SK-MEL-2 melanoma) was 35.2 µM and the TGI (EKVX NSCLC) was 44.9 µM. The TGI (SN12C renal) was 45.1 µM, the TGI (NCI-H460 lung) was 30.9 µM and the TGI (HS 578T breast) was greater than 100 µM. The TGI (SF-268 CNS) was 39.4 µM, the TGI (PC-3 prostate) was 34 µM and the TGI (DU-145 prostate) was 40 µM. It also gave a TGI (M14 melanoma) of 49.5 µM, a TGI (HCC-2998 colon) of 28.9 µM and a TGI (MOLT-4 leukemia) of 42.9 µM. The TGI (A498 renal) was 44.4 µM, the TGI (SK-MEL-5 melanoma) was 30.4 µM and the TGI (OVCAR-8 ovarian) was greater than 100 µM. For the same molecule, the TGI (OVCAR-5 ovarian) was 37.6 µM, the TGI (NCI-H23 lung) was 53.5 µM and the TGI (IGROV1 ovarian) was 66.5 µM. For the same molecule, the TGI (SK-MEL-28 melanoma) was 37 µM, the TGI (UO-31 renal) was 61.8 µM and the TGI (UACC-62 melanoma) was 29.9 µM. The TGI (K-562 leukemia) was 33.7 µM, the TGI (CAKI-1 renal) was greater than 100 µM and the TGI (OVCAR-3 ovarian) was 78.6 µM. It also gave a TGI (T-47D breast) greater than 100 µM, a TGI (NCI/ADR-RES ovarian) of 89.4 µM and a TGI (786-0 renal) of 45.9 µM. The TGI (SNB-75 CNS) was 38.6 µM, the TGI (BT-549 breast) was 71.7 µM and the TGI (SF-295 CNS) was 43.6 µM. It also gave a TGI (SR leukemia) of 12.2 µM, a TGI (MDA-N) of 42.8 µM and a TGI (MALME-3M melanoma) of 39.3 µM. For the same molecule, the TGI (OVCAR-4 ovarian) was greater than 100 µM, the TGI (SW-620 colon) was 30 µM and the TGI (LOX IMVI melanoma) was 30.6 µM. The TGI (ACHN renal) was 52.9 µM, the TGI (HOP-62 NSCLC) was 55.4 µM and the TGI (HOP-92 NSCLC) was greater than 100 µM. For the same molecule, the TGI (HCT-15 colon) was 86.3 µM, the TGI (MDA-MB-231 breast) was 34.3 µM and the TGI (HT29 colon) was 48.4 µM. The TGI (HCT-116 colon) was 35.7 µM, the TGI (RXF 393 renal) was 37.7 µM and the TGI (U251 CNS) was 32.2 µM. The TGI (TK-10 renal) was 47.3 µM, the TGI (KM12 colon) was 90.3 µM and the TGI (UACC-257 melanoma) was 29.8 µM. The TGI (MDA-MB-435) was greater than 100 µM and the TGI (SNB-19 CNS) was 57.5 µM.
